For one experiment, the system named is ESKAPE pathogens. As to conditions: cited from earlier work.
The next experiment deals with MRSA (ATCC BAA-44). Nature of the experiment: MRSA proliferation assay. The format is cell-based, Staphylococcus aureus.
The target in another experiment is E. coli GroEL (Escherichia coli, UniProt P0A6F5). Nature of the experiment: Isothermal titration calorimetry binding to GroEL. As to conditions: for T∆S: 20°C (293.15 K); for Stoichiometry n, GroELmonomer : Molecule: single-site binding model; for ∆G: calculated with Gibbs equation at 20°C.
The test system of another experiment is S. aureus (ATCC 25923). As to the kind of experiment: S. aureus proliferation assay. The experiment is classed as cell-based, Staphylococcus aureus.
For experiment [1], the system named is MRSA strain (ATCC BAA-44). As to the kind of experiment: 12-day serial passage MRSA resistance assay. Conditions: for MRSA resistance generation: 12 passages over 12 days. The format is cell-based, Staphylococcus aureus.
For experiment [2], the target named is T1, native malate dehydrogenase (Sus scrofa, UniProt P00346).
T1 sequence (P00346 25-338): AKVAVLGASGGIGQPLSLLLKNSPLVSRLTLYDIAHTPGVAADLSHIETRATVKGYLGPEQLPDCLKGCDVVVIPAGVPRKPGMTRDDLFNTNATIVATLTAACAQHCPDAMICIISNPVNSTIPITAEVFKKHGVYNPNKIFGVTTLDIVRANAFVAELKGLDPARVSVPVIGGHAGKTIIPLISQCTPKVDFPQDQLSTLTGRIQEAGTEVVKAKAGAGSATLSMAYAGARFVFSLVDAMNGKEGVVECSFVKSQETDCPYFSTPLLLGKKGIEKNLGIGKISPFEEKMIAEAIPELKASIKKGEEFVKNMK
As to the kind of experiment: Native MDH enzymatic reporter counter-screen. The format is biochemical.

The next experiment has as its target T2, native rhodanese (Bos taurus, UniProt P00586).
T2 sequence (P00586 2-297 limits assumed): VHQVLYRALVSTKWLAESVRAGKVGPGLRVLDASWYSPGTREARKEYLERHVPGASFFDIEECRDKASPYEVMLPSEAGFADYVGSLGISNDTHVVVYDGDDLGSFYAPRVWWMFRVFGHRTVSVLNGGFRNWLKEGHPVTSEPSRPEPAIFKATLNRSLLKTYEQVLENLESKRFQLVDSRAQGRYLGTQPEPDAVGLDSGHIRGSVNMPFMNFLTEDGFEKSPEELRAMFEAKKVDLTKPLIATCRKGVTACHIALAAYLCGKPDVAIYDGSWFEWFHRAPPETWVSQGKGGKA
As to the kind of experiment: Native Rho enzymatic reporter counter-screen. The format is biochemical.

E. coli GroEL, sequence (P0A6F5 2-548): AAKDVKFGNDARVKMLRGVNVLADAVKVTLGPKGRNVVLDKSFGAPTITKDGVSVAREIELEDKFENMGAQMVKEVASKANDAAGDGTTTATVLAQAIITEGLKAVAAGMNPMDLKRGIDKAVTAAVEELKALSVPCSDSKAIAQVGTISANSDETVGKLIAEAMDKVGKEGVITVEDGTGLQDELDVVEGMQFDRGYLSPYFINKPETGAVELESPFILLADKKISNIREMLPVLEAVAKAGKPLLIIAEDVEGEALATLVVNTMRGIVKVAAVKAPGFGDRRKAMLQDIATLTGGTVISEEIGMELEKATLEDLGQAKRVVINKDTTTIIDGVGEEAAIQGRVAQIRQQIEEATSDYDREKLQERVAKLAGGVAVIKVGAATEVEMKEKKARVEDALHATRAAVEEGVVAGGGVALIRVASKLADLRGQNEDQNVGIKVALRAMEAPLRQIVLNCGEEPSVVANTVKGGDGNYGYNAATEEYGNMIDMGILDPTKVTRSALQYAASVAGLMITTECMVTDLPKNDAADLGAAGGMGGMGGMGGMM

Consider `Cc1ccc(S(=O)(=O)Nc2ccc(-c3nc4ccc(NS(=O)(=O)c5ccc(C)cc5)cc4[nH]3)cc2)cc1` [compound 1], for which the “antibacterial effects against ESKAPE pathogens” value with ESKAPE pathogens was “no antibacterial effects”.

For `NCc1ccc(S(=O)(=O)Nc2ccc3oc(-c4ccc(NS(=O)(=O)c5ccc(Cl)s5)cc4)nc3c2)cc1` [20L], the “inhibition of MRSA proliferation” value with MRSA (ATCC BAA-44) was “only moderately active”. On E. coli GroEL (ITC, 20°C), the “Stoichiometry n, Molecule : GroELmonomer” value was 1.67 ± 0.39; the “∆H” value was -8.30 ± 0.52 kcal/mol; the “∆S” value worked out at 0.003 ± 0.002 kcal/molK; the “Stoichiometry n, GroELmonomer : Molecule” value was 0.6 ± 0.14. Besides, the “T∆S” value on E. coli GroEL (ITC) is listed as 0.84 ± 0.55 kcal/mol. Besides, the “Stoichiometry n, Molecule : GroELoligomer” value at E. coli GroEL (ITC, 20°C, molecules per GroEL tetradecamer) was found to be 23.3 ± 5.4. Besides, the “∆G” value at E. coli GroEL is -9.14 ± 0.06 kcal/mol. Further, in the experiment with S. aureus (ATCC 25923), the “inhibition of S. aureus proliferation” value is “only moderately active”.

Consider `O=S(=O)(Nc1ccc(-c2nc3cc(NS(=O)(=O)c4ccc(Cl)cc4)ccc3o2)cc1)c1ccc(Cl)cc1` [2c-p], for which the “inhibition of MRSA proliferation” value in the experiment with MRSA (ATCC BAA-44) is “most potent and selective inhibitors of MRSA proliferation”.

As to `CN[C@H](CC(C)C)C(=O)N[C@H]1C(=O)N[C@@H](CC(N)=O)C(=O)N[C@H]2C(=O)N[C@H]3C(=O)N[C@H](C(=O)N[C@H](C(=O)O)c4cc(O)cc(O)c4-c4cc3ccc4O)[C@H](O)c3ccc(c(Cl)c3)Oc3cc2cc(c3O[C@@H]2O[C@H](CO)[C@@H](O)[C@H](O)[C@H]2O[C@H]2C[C@](C)(N)[C@H](O)[C@H](C)O2)Oc2ccc(cc2Cl)[C@H]1O` [vancomycin, reference compound], the “MRSA resistance generation” value in experiment [1] was “retained sensitivity”.

On to `O=[N+]([O-])c1cc(S(=O)(=O)Nc2ccc(-c3nc4cc(NS(=O)(=O)c5ccc(Cl)s5)ccc4o3)cc2)ccc1Cl` [28R], for which the “MRSA resistance generation” value in experiment [1] was “rapidly developed resistance”. The “sensitivity of resistant MRSA after culture without inhibitor” value in experiment [1] (two days without inhibitors (24 h agar, 24 h liquid)) was “regained sensitivity”. The “inhibition of native malate dehydrogenase” value in experiment [2] is “only to a minor extent”. In addition, the “inhibition of native rhodanese” value on native rhodanese is reported as “only to a minor extent”.

As for `O=S(=O)(Nc1ccc(-c2nc3cc(NS(=O)(=O)c4cccs4)ccc3o2)cc1)c1cccs1` [compound 6], in the experiment with MRSA (ATCC BAA-44), the “inhibition of MRSA proliferation” value is “most potent and selective inhibitors of MRSA proliferation”.

For the molecule `NCc1ccc(S(=O)(=O)Nc2ccc(-c3nc4cc(NS(=O)(=O)c5ccc(Cl)s5)ccc4o3)cc2)cc1` [20R], the “MRSA resistance generation” value in experiment [1] is listed as “unable to generate resistance”. Moreover, the “inhibition of MRSA proliferation” value in the experiment with MRSA (ATCC BAA-44) is “only moderately active”. Besides, at E. coli GroEL (ITC, 20°C), the “Stoichiometry n, Molecule : GroELmonomer” value amounted to 1.30 ± 0.27; the “∆H” value was -9.78 ± 0.80 kcal/mol; the “∆S” value amounted to 0.001 ± 0.003 kcal/molK; the “Stoichiometry n, GroELmonomer : Molecule” value was found to be 0.77 ± 0.16. Besides, the “T∆S” value on E. coli GroEL (ITC) is reported as 0.20 ± 0.82 kcal/mol. Moreover, on E. coli GroEL, the “∆G” value is -9.98 ± 0.26 kcal/mol. Besides, in the experiment with S. aureus (ATCC 25923), the “inhibition of S. aureus proliferation” value is “only moderately active”.

(Values after publication PMC6345161 (Journal of medicinal chemistry, 2018).)
